This note sets out measurements from US9493441B2, “Acyclic cyanoethylpyrazoles as janus kinase inhibitors” (Merck Sharp & Dohme Corp., priority 2011, dated 2016).

Read-outs that look alike come from different tables or passages of the source.

The target of one experiment is JAK1 (Homo sapiens (Human), UniProt P23458). In words: Jak biochemical HTRF assay, JAK1. (TR-FRET usually uses a lanthanide donor and a delayed reading to cut background.)
The next experiment deals with JAK2 (Homo sapiens (Human), UniProt O60674). In words: Jak biochemical HTRF assay, JAK2.
Where [1] appears, read: read-out: JAK1 IC50, recombinant GST-tagged catalytic domain, [ATP] 31.8 μM.
The mark [2] stands for this setting: read-out: JAK2 IC50, recombinant GST-tagged catalytic domain, [ATP] […].
Setting [3] is: JAK1 IC50 (nM), recombinant GST-tagged catalytic domain, [ATP] 31.8 μM.
[4] abbreviates: JAK2 IC50 (nM), recombinant GST-tagged catalytic domain, [ATP] […].

Chain of JAK2 (O60674 849-1124): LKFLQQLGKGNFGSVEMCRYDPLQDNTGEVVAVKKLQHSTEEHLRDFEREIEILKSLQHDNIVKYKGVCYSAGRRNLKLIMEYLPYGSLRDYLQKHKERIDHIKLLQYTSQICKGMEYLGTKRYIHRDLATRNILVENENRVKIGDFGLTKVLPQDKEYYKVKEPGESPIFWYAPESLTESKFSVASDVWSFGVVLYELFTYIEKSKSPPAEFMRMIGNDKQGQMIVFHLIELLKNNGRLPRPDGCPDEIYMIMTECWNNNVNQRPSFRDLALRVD
Chain of JAK1 (P23458 875-1153): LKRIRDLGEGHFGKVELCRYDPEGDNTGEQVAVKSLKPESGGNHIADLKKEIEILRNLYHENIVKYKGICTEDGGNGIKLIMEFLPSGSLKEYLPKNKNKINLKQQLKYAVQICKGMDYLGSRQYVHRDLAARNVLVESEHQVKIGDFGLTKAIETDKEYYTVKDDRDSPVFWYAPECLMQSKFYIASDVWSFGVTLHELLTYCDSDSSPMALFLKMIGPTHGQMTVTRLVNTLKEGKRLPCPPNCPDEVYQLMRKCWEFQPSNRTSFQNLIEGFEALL

The IC50 is the midpoint of a concentration-inhibition curve. Regarding `CC(C)(C)OC(=O)N1CCC(C(CC#N)n2cc(C(N)=O)c(Nc3ccccc3)n2)CC1` (single isomer, unassigned) [Example 15-1, tert-Butyl 4-{(1S or 1R)-1-[4-carbamoyl-3-(phenylamino)-1H-pyrazol-1-yl]-2-cyanoethyl}piperidine-1-carboxylate], the IC50 on JAK1 (setting [1]) was determined as 13 nM; on JAK2 (setting [2]) it was 601 nM.

Regarding “1-[(1R or 1S)-2-cyano-1-cyclopropylethyl]-3-{[4-(methylsulfonyl)phenyl]amino}-1H-pyrazole-4-carboxamide [Example 14-1]”, the values for the IC50 on JAK1 (setting [1]) and at JAK2 (setting [2]) were 1 nM and 8 nM, respectively.

With `Cc1noc(-c2ccc(Nc3nn([C@@H](CC#N)C4CC4)cc3C(N)=O)cc2)n1` (single isomer, unassigned) [Example 18-2, 1-[(1R or 1S)-2-cyano-1-cyclopropylethyl]-3-{[4-(3-methyl-1,2,4-oxadiazol-5-yl)phenyl]amino}-1H-pyrazole-4-carboxamide], the IC50 was found to be 34 nM on JAK1 (setting [1]) and 257 nM on JAK2 (setting [2]).

As for `N#CCC(C1CC1)n1cc(C(N)=O)c(Nc2cncc(C#N)c2)n1` (stereo not drawn) [Example 4-18, 1-(2-cyano-1-cyclopropylethyl)-3-[(5-cyanopyridin-3-yl)amino]-1H-pyrazole-4-carboxamide], the IC50 turned out to be 131 nM at JAK1 (setting [3]) and 425 nM at JAK2 (setting [4]).

Consider `CNC(=O)c1ccc(Nc2nn(C(CC#N)C3CC3)cc2C(N)=O)cc1` (stereo not drawn) [Example 4-13, 1-(2-cyano-1-cyclopropylethyl)-3-{[4-(methylcarbamoyl)phenyl]amino}-1H-pyrazole-4-carboxamide], for which the IC50 at JAK1 (setting [3]) came to 2 nM; at JAK2 (setting [4]), 21 nM.

On to `N#CCC(C1CC1)n1cc(C(N)=O)c(Nc2ccc3c(c2)C=CS3(=O)=O)n1` (stereo not drawn) [Example 4-35, 1-(2-cyano-1-cyclopropylethyl)-3-[(1,1-dioxido-1-benzothiophen-5-yl)amino]-1H-pyrazole-4-carboxamide], for which the IC50 was found to be 2 nM at JAK1 (setting [3]) and 34 nM at JAK2 (setting [4]).

On to `N#CCC(C1CC1)n1cc(C(N)=O)c(Nc2cccc(CO)c2)n1` (stereo not drawn) [Example 4-10, 1-(2-cyano-1-cyclopropylethyl)-3-{[3-(hydroxymethyl)phenyl]amino}-1H-pyrazole-4-carboxamide], for which the IC50 at JAK1 (setting [3]) was found to be 12 nM; on JAK2 (setting [4]), 41 nM.

As for `Cc1c(Cl)ncnc1N1CCC([C@H](CC#N)n2cc(C(N)=O)c(Nc3ccc(F)cc3)n2)CC1` [Example 13, 1-{(1S)-1-[1-(6-Chloro-5-methylpyrimidin-4-yl)piperidin-4-yl]-2-cyanoethyl}-3-[(4-fluorophenyl)amino]-1H-pyrazole-4-carboxamide], the IC50 on JAK1 (setting [3]) was 823 nM; on JAK2 (setting [4]), 1500 nM.

Take `CS(=O)(=O)c1ccc(Nc2nn(C(CC#N)C3CC3)cc2C(N)=O)cc1` (stereo not drawn) [Example 4-1, 1-(2-Cyano-1-cyclopropylethyl)-3-{[4-(methylsulfonyl)phenyl]amino}-1H-pyrazole-4-carboxamide]: the IC50 on JAK1 (setting [3]) is 3 nM; at JAK2 (setting [4]), 28 nM.

As for `N#CCC(C1CC1)n1cc(C(N)=O)c(Nc2ccc(C(F)(F)F)cc2)n1` (stereo not drawn) [Example 4-3, 1-(2-cyano-1-cyclopropylethyl)-3-{[4-(trifluoromethyl)phenyl]amino}-1H-pyrazole-4-carboxamide], the IC50 at JAK1 (setting [3]) is 12 nM; on JAK2 (setting [4]), 110 nM.

Consider `CC(CC#N)(C1CC1)n1cc(C(N)=O)c(Nc2ccccc2)n1` (stereo not drawn) [Example 1-18, 1-(2-cyano-1-cyclopropyl-1-methylethyl)-3-(phenylamino)-1H-pyrazole-4-carboxamide], for which the IC50 on JAK1 (setting [3]) was 195 nM; on JAK2 (setting [4]), 413 nM.

For the molecule `CCOC(=O)N1CCC([C@H](CC#N)n2cc(C(N)=O)c(Nc3ccc(F)cc3)n2)CC1` (single isomer, unassigned) [Example 12-4, ethyl 4-[(1S or 1R)-1-{4-carbamoyl-3-[(4-fluorophenyl)amino]-1H-pyrazol-1-yl}-2-cyanoethyl]piperidine-1-carboxylate], the results for the IC50 at JAK1 (setting [3]) and on JAK2 (setting [4]) were 44 nM and 1050 nM, respectively.

Regarding `N#CC[C@@H](C1CCN(C(=O)OC2CCCC2)CC1)n1cc(C(N)=O)c(Nc2ccc(F)cc2)n1` [Example 11-6, cyclopentyl 4-[(1S)-1-{4-carbamoyl-3-[(4-fluorophenyl)amino]-1H-pyrazol-1-yl}-2-cyanoethyl]piperidine-1-carboxylate], the IC50 was found to be 69 nM at JAK1 (setting [3]) and 1200 nM at JAK2 (setting [4]).

On to `CC(C)(C)OC(=O)N1CCC(C(CC#N)n2cc(C(N)=O)c(Nc3ccc(F)cc3)n2)CC1` (single isomer, unassigned) [Example 14-3, tert-butyl 4-[(1S or 1R)-1-{4-carbamoyl-3-[(4-fluorophenyl)amino]-1H-pyrazol-1-yl}-2-cyanoethyl)piperidine-1-carboxylate], for which the IC50 on JAK1 (setting [3]) was found to be 92 nM; on JAK2 (setting [4]), 903 nM.

Turning to `CN(C)CCOC(=O)N1CCC([C@H](CC#N)n2cc(C(N)=O)c(Nc3ccc(F)cc3)n2)CC1` (stereo in doubt) [Example 11-1, 2-(Dimethylamino)ethyl 4-(1-{4-carbamoyl-3-[(4-fluorophenyl)amino]-1H-pyrazol-1-yl}-2-cyanoethyl)piperidine-1-carboxylate], the IC50 amounted to 959 nM at JAK1 (setting [3]) and 1500 nM at JAK2 (setting [4]).

In the case of `N#CCC(C1CC1)n1cc(C(N)=O)c(Nc2ccc3c(c2)CN(CC(=O)O)C3=O)n1` (stereo not drawn) [Example 8, (5-{[4-Carbamoyl-1-(2-cyano-1-cyclopropylethyl)-1H-pyrazol-3-yl]amino}-1-oxo-1,3-dihydro-2H-isoindol-2-yl)acetic acid], the IC50 at JAK1 (setting [3]) worked out at 1 nM; on JAK2 (setting [4]) it was 34 nM.

Consider `N#CCC(C1CC1)n1cc(C(N)=O)c(Nc2ccccc2F)n1` (stereo not drawn) [Example 6-2, 1-(2-cyano-1-cyclopropylethyl)-3-[(2-fluorophenyl)amino]-1H-pyrazole-4-carboxamide], for which the 50% inhibitory concentration (IC50) amounted to 360 nM at JAK1 (setting [1]) and 1480 nM at JAK2 (setting [2]).

Take `N#CC[C@H](C1CC1)n1cc(C(N)=O)c(Nc2ccnc(F)c2)n1` (single isomer, unassigned) [Example 17-4, 1-[(1R or 1S)-2-cyano-1-cyclopropylethyl]-3-[(2-fluoropyridin-4-yl)amino]-1H-pyrazole-4-carboxamide]: the IC50 at JAK1 (setting [3]) came out at 2 nM; at JAK2 (setting [4]), 16 nM.

Consider `CC(C)(C)COC(=O)N1CCC([C@H](CC#N)n2cc(C(N)=O)c(Nc3ccc(F)cc3)n2)CC1` (single isomer, unassigned) [Example 12-2, 2,2-dimethylpropyl 4-[(1S or 1R)-1-{4-carbamoyl-3-[(4-fluorophenyl)amino]-1H-pyrazol-1-yl}-2-cyanoethyl]piperidine-1-carboxylate], for which the values for the IC50 at JAK1 (setting [3]) and at JAK2 (setting [4]) were 718 nM and 1500 nM, respectively.

Turning to “1-[(1R or 1S)-2-cyano-1-cyclopropylethyl]-3-{[4-(methylsulfonyl)phenyl]amino}-1H-pyrazole-4-carboxamide [Example 14-2]”, the values for the IC50 on JAK1 (setting [1]) and at JAK2 (setting [2]) were 5 nM and 55 nM, respectively.

Regarding `N#CCC(C1CCOCC1)n1cc(C(N)=O)c(Nc2ccccc2)n1` (stereo not drawn) [Example 1-9, 1-[2-cyano-1-(tetrahydro-2H-pyran-4-yl)ethyl]-3-(phenylamino)-1H-pyrazole-4-carboxamide], the IC50 came out at 241 nM on JAK1 (setting [3]) and 1480 nM on JAK2 (setting [4]).
